Broadly, the IC50 is the concentration needed to halve the response being measured. A high value points to lower potency. The term IC90 denotes the point of the concentration-response curve where the effect stands at 90%.

In brackets after ≈: the same amount, converted by molar mass.

The subject of one data set is KB. Put plainly: Cytotoxicity against human KB cells after 48 hrs by MTT assay. Format: functional, cell-based. For orientation: Tetrazolium assays rely on reduction of a dye to a coloured formazan, in cell work by metabolically active cells.
The test system of another data set is MCF7. As to the kind of experiment: Cytotoxicity against human MCF7 cells after 48 hrs by MTT assay. Format: functional, cell-based. Conditions: MCF7, 48 h.
The nature of data set [1]: (§1) Cytotoxicity against human Caco-2 cells after 48 hrs by MTT assay. Format: cell-based. As to conditions: human, Caco-2 cells.
A further data set concerns Caco-2. Described as §1. As to conditions: Homo sapiens, Caco-2, 48 h. Format: cell-based.
Another data set deals with HepG2. As to the kind of experiment: Cytotoxicity against human HepG2 cells after 48 hrs by MTT assay. Format: functional, cell-based. As to conditions: HepG2, 48 h.

`C=C1[C@@H](OC(=O)[C@H](O)[C@@H](NC(=O)OC(C)(C)C)c2ccccc2)C[C@H](OC(C)=O)[C@]2(C)[C@@H]1C[C@]1(C(C)(C)O)C[C@H](OC(=O)C(O)C(NC(=O)OC(C)(C)C)c3ccccc3)C(C)=C1[C@@H](OC(=O)c1ccccc1)[C@@H]2OC(C)=O` (stereo partly specified): the IC50 with KB came to 2.73 µg/mL (≈ 2.52 µM); in the data set with MCF7 it was 100 µg/mL (≈ 92.3 µM); in the data set on Caco-2 it was 100 µg/mL (≈ 92.3 µM); in the data set on HepG2 it was 96.6 µg/mL (≈ 89.2 µM). Also, the IC90 in the data set with KB came to 33.3 µg/mL (≈ 30.7 µM); in the data set on MCF7, 100 µg/mL (≈ 92.3 µM); in the data set with HepG2, 100 µg/mL (≈ 92.3 µM). The compound further displayed an IC90 at 48 h in data set [1] of 100 µg/mL (≈ 92.3 µM).
In the case of `CC(=O)O[C@H]1C(=O)[C@@]2(C)[C@H]([C@H](OC(=O)c3ccccc3)[C@]3(O)C[C@H](OC(=O)[C@H](O)[C@@H](NC(=O)c4ccccc4)c4ccccc4)C(C)=C1C3(C)C)[C@]1(OC(C)=O)CO[C@@H]1C[C@@H]2O` [PACLITAXEL], the IC90 with KB turned out to be 0.048 µg/mL (≈ 0.0562 µM); in the data set on MCF7 it was 0.86 µg/mL (≈ 1.01 µM); in the data set on HepG2, 1.13 µg/mL (≈ 1.32 µM). The compound further displayed an IC90 at 48 h in data set [1] of 0.065 µg/mL (≈ 0.0761 µM).
Turning to `C=C1[C@@H](O)C[C@H](OC(C)=O)[C@@]2(C)[C@@H](OC(C)=O)[C@H](OC(=O)c3ccccc3)C3=C(C)C(=O)C[C@@]3(C(C)(C)O)[C@@H](OC(C)=O)[C@H]12` [13-OXO-TAXCHININ A], the IC50 stood at 100 µg/mL (≈ 163 µM) with KB, 100 µg/mL (≈ 163 µM) in the data set with MCF7, 100 µg/mL (≈ 163 µM) with Caco-2 and 96.6 µg/mL (≈ 158 µM) in the data set on HepG2. For the same compound, the IC90 with KB, with MCF7 and in the data set on HepG2 was 100 µg/mL (≈ 163 µM) throughout. The same compound gave an IC90 at 48 h in data set [1] of 100 µg/mL (≈ 163 µM).
For `C=C1[C@@H](OC(=O)[C@H](O)[C@@H](NC(=O)OC(C)(C)C)c2ccccc2)C[C@H](OC(C)=O)[C@@]2(C)[C@@H](OC(C)=O)[C@H](OC(=O)c3ccccc3)C3=C(C)C(=O)C[C@@]3(C(C)(C)O)[C@@H](OC(C)=O)[C@H]12`, the half-maximal inhibitory concentration (IC50) with KB was 0.105 µg/mL (≈ 0.12 µM); in the data set on MCF7 it was 100 µg/mL (≈ 114 µM); with Caco-2, 100 µg/mL (≈ 114 µM); with HepG2, 100 µg/mL (≈ 114 µM). In addition, the IC90 in the data set on KB turned out to be 5.33 µg/mL (≈ 6.08 µM); with MCF7, 100 µg/mL (≈ 114 µM); with HepG2, 100 µg/mL (≈ 114 µM). In data set [1], this compound gave an IC90 at 48 h of 100 µg/mL (≈ 114 µM).
Take `C=C1[C@H]2C[C@]3(C(C)(C)O)C[C@H](O)C(C)=C3[C@@H](OC(=O)c3ccccc3)[C@H](OC(C)=O)[C@]2(C)[C@@H](OC(C)=O)C[C@@H]1O` [BREVIFOLIOL]: the IC50 turned out to be 0.0031 µg/mL (≈ 0.00557 µM) in the data set with KB, 0.86 µg/mL (≈ 1.54 µM) in the data set with MCF7, 0.0025 µg/mL (≈ 0.00449 µM) in the data set with Caco-2 and 0.055 µg/mL (≈ 0.0988 µM) in the data set with HepG2. The IC90 in the data set on KB turned out to be 0.6 µg/mL (≈ 1.08 µM); in the data set with MCF7, 6.16 µg/mL (≈ 11.1 µM); with HepG2, 1.13 µg/mL (≈ 2.03 µM). In data set [1], this compound registered an IC90 at 48 h of 1.32 µg/mL (≈ 2.37 µM).
For the compound `C=C1[C@@H](OC(=O)[C@H](O)[C@@H](NC(=O)OC(C)(C)C)c2ccccc2)C[C@H](OC(C)=O)[C@]2(C)[C@@H]1C[C@]1(C(C)(C)O)CC(=O)C(C)=C1[C@@H](OC(=O)c1ccccc1)[C@@H]2OC(C)=O`, the IC50 with KB was determined as 100 µg/mL (≈ 122 µM); in the data set with MCF7, 8.5 µg/mL (≈ 10.4 µM); in the data set on Caco-2, 100 µg/mL (≈ 122 µM); in the data set with HepG2, 0.065 µg/mL (≈ 0.0795 µM). Besides, the results for the 90% effect concentration (IC90) in the data set on KB, in the data set with MCF7 and with HepG2 were 100 µg/mL (≈ 122 µM), 43.3 µg/mL (≈ 53 µM) and 5.33 µg/mL (≈ 6.52 µM), respectively. This compound also returned an IC90 at 48 h in data set [1] of 100 µg/mL (≈ 122 µM).
On to `C=C1[C@@H](OC(=O)[C@H](O)[C@@H](NC(=O)OC(C)(C)C)c2ccccc2)C[C@H](OC(C)=O)[C@]2(C)[C@@H]1C[C@]1(C(C)(C)O)C[C@H](O)C(C)=C1[C@@H](OC(=O)c1ccccc1)[C@@H]2OC(C)=O`, for which the IC50 in the data set with KB amounted to 100 µg/mL (≈ 122 µM); with MCF7 it was 33.3 µg/mL (≈ 40.6 µM); with Caco-2, 100 µg/mL (≈ 122 µM); in the data set with HepG2, 100 µg/mL (≈ 122 µM). Moreover, the IC90 in the data set on KB was found to be 100 µg/mL (≈ 122 µM); in the data set with MCF7, 55 µg/mL (≈ 67.1 µM); with HepG2 it was 100 µg/mL (≈ 122 µM). Besides, the IC90 at 48 h in data set [1] came out at 100 µg/mL (≈ 122 µM).
As to `C=C1[C@H]2C[C@]3(C(C)(C)O)CC(=O)C(C)=C3[C@@H](OC(=O)c3ccccc3)[C@H](OC(C)=O)[C@]2(C)[C@@H](OC(C)=O)C[C@@H]1O`, the IC50 with KB worked out at 0.0078 µg/mL (≈ 0.0141 µM); in the data set with MCF7, 5.33 µg/mL (≈ 9.61 µM); in the data set with Caco-2, 0.008 µg/mL (≈ 0.0144 µM); in the data set with HepG2 it was 100 µg/mL (≈ 180 µM). For the same compound, the figures for the concentration for an effect of 90% (IC90) in the data set on KB, in the data set with MCF7 and in the data set with HepG2 were 1.13 µg/mL (≈ 2.04 µM), 22.6 µg/mL (≈ 40.7 µM) and 100 µg/mL (≈ 180 µM), respectively. Also, it took 21 µg/mL (≈ 37.9 µM) to reach the 90% level in data set [1] (IC90 at 48 h).
With `C=C1[C@H]2C[C@]3(C(C)(C)O)C[C@H](OC(=O)[C@H](O)[C@@H](NC(=O)OC(C)(C)C)c4ccccc4)C(C)=C3[C@@H](OC(=O)c3ccccc3)[C@H](OC(C)=O)[C@]2(C)[C@@H](OC(C)=O)C[C@@H]1O`, the IC50 in the data set on KB amounted to 100 µg/mL (≈ 122 µM); in the data set with MCF7, 48.3 µg/mL (≈ 58.9 µM); in the data set with Caco-2 it was 100 µg/mL (≈ 122 µM); with HepG2, 78.3 µg/mL (≈ 95.5 µM). Moreover, the IC90 is 100 µg/mL (≈ 122 µM) in the data set with KB, 68.3 µg/mL (≈ 83.3 µM) with MCF7 and 91.6 µg/mL (≈ 112 µM) in the data set on HepG2. In addition, the IC90 at 48 h in data set [1] turned out to be 100 µg/mL (≈ 122 µM).
For the compound `C=C1[C@@H](O)C[C@H](OC(C)=O)[C@@]2(C)[C@@H](OC(C)=O)[C@H](OC(=O)c3ccccc3)C3=C(C)[C@@H](O)C[C@@]3(C(C)(C)O)[C@@H](OC(C)=O)[C@H]12` [TAXCHININ A], the IC50 in the data set with KB was found to be 0.316 µg/mL (≈ 0.514 µM); with MCF7, 58.3 µg/mL (≈ 94.8 µM); in the data set on Caco-2 it was 6.16 µg/mL (≈ 10 µM); in the data set with HepG2 it was 96.6 µg/mL (≈ 157 µM). The results for the IC90 in the data set on KB, in the data set with MCF7 and with HepG2 were 7.5 µg/mL (≈ 12.2 µM), 91.6 µg/mL (≈ 149 µM) and 100 µg/mL (≈ 163 µM), respectively. Also, in data set [1], the IC90 at 48 h is 21 µg/mL (≈ 34.2 µM).

These data come from ChEMBL document CHEMBL1140954, “Syntheses and cytotoxicities of the analogues of the taxoid brevifoliol” (Eur J Med Chem, 2008).
